Patent publication US10150737B2, “Compounds for controlling arthropods” (priority 2013, dated 2018)

Legend:
Boophilus microplus = Boophilus microplus - injection test; assay type: in vivo; conditions: application rate 20 μg/animal; injection into engorged adult female ticks; after 7 days
Outline: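 Five engorged adult female cattle ticks each received a 1 μl abdominal injection of compound solution in dimethyl sulphoxide. Fertile egg laying was assessed at 7 days, with doubtful eggs incubated about 42 days until hatch. 0% efficacy means all eggs fertile.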

Rhipicephalus sanguineus = Rhipicephalus sanguineus - in vitro contact tests with adult brown dog ticks; assay type: in vivo; conditions: after 48 h, ticks dead or moribund
Outline: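 Efficacy, scored after 48 h, is the % of adult ticks dead or moribund, i.e. unable to climb away on a 45-50° C hotplate within 5 min. Tubes held 5-10 ticks in the dark at room temperature, on an acetone-applied coating of 5 μg/cm^2 (900 ppm solution).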

Spodoptera frugiperda = Spodoptera frugiperda - spray test; assay type: in vivo; conditions: caterpillars on maize leaf discs, after 7 days
Outline: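 Percent mortality of Spodoptera frugiperda caterpillars scored 7 days after placing them on dried maize leaf discs sprayed at the desired concentration. Spray formulation: compound dissolved in acetone/dimethylformamide, made up with water containing 1000 ppm emulsifier.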

Phaedon cochleariae = Phaedon cochleariae - spray test; assay type: in vivo; conditions: larvae on Chinese cabbage leaf discs, after 7 days
Outline: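 Mortality of mustard beetle larvae was scored as % at day 7 on Brassica pekinensis leaf discs. Discs had been treated by spraying at the desired concentration, using an acetone/dimethylformamide solution diluted in water with 1000 ppm alkylaryl polyglycol ether, and dried before larvae were added.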

Tetranychus urticae = Tetranychus urticae - spray test, OP-resistant; assay type: in vivo; conditions: bean leaf discs, after 6 days
Outline: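 Mortality (%) read on day 6 after spraying Phaseolus vulgaris leaf discs carrying all mite stages with formulations at the desired concentration. Formulation: active ingredient in acetone plus dimethylformamide, made up with emulsifier-containing water (1000 ppm alkylaryl polyglycol ether).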

Amblyomma hebraeum = assay: Amblyomma hebaraeum test (tick nymphs, immersion); assay type: in vivo; conditions: application rate 100 ppm; tick nymphs immersed one minute; after 42 days
Outline: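 Mortality (%) is read 42 days post-treatment, where 0% means no ticks and 100% all ticks killed. Nymphs were dipped for 1 min into the test dilution (DMSO stock diluted with water) and afterwards stored on filter paper under controlled climate.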

Musca domestica = Musca domestica test; assay type: in vivo; conditions: application rate 100 ppm; adult houseflies; after 2 days
Outline: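 First, 10 mg compound was taken up in 0.5 ml DMSO and then brought with water to the required concentration. This was applied with sugar solution to a sponge in vessels holding 10 adult flies; kill was assessed after 2 days.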

Ctenocephalides felis [1] = assay: Ctenocephalides felis - in vitro contact tests with adult cat fleas; assay type: in vivo; conditions: application rate 5 μg/cm2 (=500 g/ha); after 48 h; fleas dead or moribund
Outline: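 Efficacy, as percentage of fleas dead or moribund, was scored at 48 h by knocking fleas to the tube base. Exposure was by contact with a dried acetone film of compound at 5 μg/cm^2 area dose; 5–10 adults per tube, room temperature, ambient humidity.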

[2] = test system: Boophilus microplus Parkhurst strain, SP-resistant; assay: Boophilus microplus - dip test; assay type: in vivo; conditions: application rate 100 ppm; dip of engorged adult female ticks; after 7 days
Outline: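 Compound dissolved in DMSO, diluted with water, and used to fully wet groups of 8-10 engorged female cattle ticks (SP-resistant Parkhurst strain). Fertile egg laying assessed at 7 days, doubtful eggs held ~42 days until hatch; 0% means all eggs fertile.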

[3] = logP determination by HPLC on a reversed-phase column (C18); assay type: physicochemical; conditions: for logP^a): HPLC-MS method a); for log P: HPLC-MS
Lucilia cuprina = Lucilia cuprina test; assay type: in vivo; conditions: application rate 100 ppm; L1 larvae; after 2 days
Outline: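 Mortality (%) of first-instar blowfly larvae, about 20 per vessel, recorded 2 days after exposure to compound-treated minced horsemeat. Compound dissolved in dimethyl sulphoxide, then water-diluted to the desired concentration.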

Myzus persicae = Myzus persicae - spray test; assay type: in vivo; conditions: Chinese cabbage leaf discs, after 6 days
Outline: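 Mortality of the green peach aphid, as % killed, was read 6 days after spraying infested Brassica pekinensis leaf discs. Compound formulated in acetone/dimethylformamide and made up with emulsifier-containing (1000 ppm) water.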

Ctenocephalides felis [4] = assay: Ctenocephalides felis - oral test; assay type: in vivo; conditions: application rate 100 ppm in citrated cattle blood; after 2 days
Outline: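 Roughly 20 unfed adult C. felis imbibe compound-dosed citrated cattle blood (DMSO formulation) across parafilm from a cylinder above their gauze chamber; percentage mortality recorded at day 2.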

[5] = reversed-phase column (C18), Table I-T3

Structure (SMILES): Cc1cc(C(F)(C(F)(F)F)C(F)(F)F)cc(C(F)(F)F)c1-n1cc(-c2cnc(Cl)c(C(=O)NC3(C#N)CC3)c2)cn1 [I-T3-108]
- efficacy (laying of fertile eggs) (Boophilus microplus): 100%
- efficacy (Rhipicephalus sanguineus; application rate 1 μg/cm2): 100%
- efficacy (Spodoptera frugiperda; application rate 500 g/ha): 100%
- efficacy (Phaedon cochleariae; application rate 500 g/ha): 100%
- efficacy (Tetranychus urticae; application rate 500 g/ha): 100%
- efficacy (kill) (Amblyomma hebraeum): 100%
- efficacy (kill) (Musca domestica): 100%
- efficacy (Ctenocephalides felis [1]): 100%
- efficacy (laying of fertile eggs) [2]: 100%
- logP^a) ([3]; reversed-phase column (C18)): 4.0
- log P [3, 5]: 4.0
- efficacy (kill) (Lucilia cuprina): 100%
- efficacy (Myzus persicae; application rate 500 g/ha): 100%
- efficacy (kill) (Ctenocephalides felis [4]): 100%

Structure (SMILES): O=C(NC1CC1)c1cc(-c2cnn(-c3c(Cl)cc(C(F)(C(F)(F)F)C(F)(F)F)cc3C(F)(F)F)c2)cnc1Cl [I-T3-112]
- efficacy (laying of fertile eggs) (Boophilus microplus): 100%
- efficacy (Rhipicephalus sanguineus; application rate 5 μg/cm2): 100%
- efficacy (Spodoptera frugiperda; application rate 500 g/ha): 100%
- efficacy (Phaedon cochleariae; application rate 500 g/ha): 100%
- efficacy (Tetranychus urticae; application rate 500 g/ha): 100%
- efficacy (kill) (Amblyomma hebraeum): 100%
- efficacy (kill) (Musca domestica): 100%
- efficacy (Ctenocephalides felis [1]): 100%
- efficacy (laying of fertile eggs) [2]: 100%
- logP^a) ([3]; reversed-phase column (C18)): 4.0
- log P [3, 5]: 4.0
- efficacy (kill) (Lucilia cuprina): 100%
- efficacy (Myzus persicae; application rate 100 g/ha): 100%
- efficacy (kill) (Ctenocephalides felis [4]): 100%

Structure (SMILES): Cc1cc(C(F)(C(F)(F)F)C(F)(F)F)cc(C)c1-n1cc(-c2cnc(Cl)c(C(=O)NC3CC3)c2)cn1 [I-T3-20]
- efficacy (laying of fertile eggs) (Boophilus microplus): 100%
- efficacy (Rhipicephalus sanguineus; application rate 5 μg/cm2): 100%
- efficacy (Spodoptera frugiperda; application rate 500 g/ha): 100%
- efficacy (Phaedon cochleariae; application rate 500 g/ha): 100%
- efficacy (Tetranychus urticae; application rate 500 g/ha): 100%
- efficacy (kill) (Amblyomma hebraeum): 100%
- efficacy (kill) (Musca domestica): 100%
- efficacy (Ctenocephalides felis [1]): 100%
- efficacy (laying of fertile eggs) [2]: 100%
- logP^a) [3]: 3.8
- logP^a) [3, 5]: 3.8
- efficacy (kill) (Lucilia cuprina): 100%
- efficacy (Myzus persicae; application rate 500 g/ha): 100%
- efficacy (kill) (Ctenocephalides felis [4]): 100%

Structure (SMILES): Cc1ncc(-c2cnn(-c3c(Cl)cc(C(F)(C(F)(F)F)C(F)(F)F)cc3Cl)c2)cc1C(=O)NC1CC1 [I-T3-91]
- efficacy (laying of fertile eggs) (Boophilus microplus): 100%
- efficacy (Rhipicephalus sanguineus; application rate 5 μg/cm2): 100%
- efficacy (Spodoptera frugiperda; application rate 500 g/ha): 100%
- efficacy (Phaedon cochleariae; application rate 500 g/ha): 100%
- efficacy (Tetranychus urticae; application rate 500 g/ha): 100%
- efficacy (kill) (Amblyomma hebraeum): 100%
- efficacy (kill) (Musca domestica): 100%
- efficacy (Ctenocephalides felis [1]): 100%
- efficacy (laying of fertile eggs) [2]: 100%
- logP^a) [3]: 3.3
- log P [3, 5]: 3.3
- efficacy (kill) (Lucilia cuprina): 100%
- efficacy (Myzus persicae; application rate 500 g/ha): 90%
- efficacy (kill) (Ctenocephalides felis [4]): 100%

Structure (SMILES): O=C(NC1CC1)c1cc(-c2cnn(-c3c(Cl)cc(C(F)(C(F)(F)F)C(F)(F)F)cc3OC(F)(F)F)c2)ccc1Cl [I-T3-162]
- efficacy (laying of fertile eggs) (Boophilus microplus): 100%
- efficacy (Rhipicephalus sanguineus; application rate 5 μg/cm2): 100%
- efficacy (Spodoptera frugiperda; application rate 100 g/ha): 100%
- efficacy (Phaedon cochleariae; application rate 100 g/ha): 100%
- efficacy (Tetranychus urticae; application rate 100 g/ha): 100%
- efficacy (kill) (Amblyomma hebraeum): 100%
- efficacy (kill) (Musca domestica): 100%
- efficacy (Ctenocephalides felis [1]): 100%
- efficacy (laying of fertile eggs) [2]: 100%
- logP^a) ([3]; reversed-phase column (C18)): 4.6
- log P [3, 5]: 4.6
- efficacy (kill) (Lucilia cuprina): 100%
- efficacy (Myzus persicae; application rate 100 g/ha): 100%
- efficacy (kill) (Ctenocephalides felis [4]): 100%

Structure (SMILES): Cc1cc(C(F)(C(F)(F)F)C(F)(F)F)cc(C(F)(F)F)c1-n1cc(-c2ccc(Cl)c(C(=O)NC3(C#N)CC3)c2)cn1 [I-T3-55]
- efficacy (laying of fertile eggs) (Boophilus microplus): 100%
- efficacy (Rhipicephalus sanguineus; application rate 5 μg/cm2): 100%
- efficacy (Spodoptera frugiperda; application rate 100 g/ha): 100%
- efficacy (Phaedon cochleariae; application rate 100 g/ha): 100%
- efficacy (Tetranychus urticae; application rate 100 g/ha): 100%
- efficacy (kill) (Amblyomma hebraeum): 100%
- efficacy (kill) (Musca domestica): 100%
- efficacy (Ctenocephalides felis [1]): 100%
- efficacy (laying of fertile eggs) [2]: 100%
- logP^a) [3]: 4.3
- logP^a) [3, 5]: 4.3
- efficacy (kill) (Lucilia cuprina): 100%
- efficacy (Myzus persicae; application rate 100 g/ha): 100%
- efficacy (kill) (Ctenocephalides felis [4]): 100%

Structure (SMILES): Cc1cc(C(F)(C(F)(F)F)C(F)(F)F)cc(Cl)c1-n1cc(-c2ccc(Cl)c(C(=O)NC3(C#N)CC3)c2)cn1 [I-T3-64]
- efficacy (laying of fertile eggs) (Boophilus microplus): 100%
- efficacy (Rhipicephalus sanguineus; application rate 0.2 μg/cm2): 80%
- efficacy (Spodoptera frugiperda; application rate 100 g/ha): 100%
- efficacy (Phaedon cochleariae; application rate 100 g/ha): 100%
- efficacy (Tetranychus urticae; application rate 100 g/ha): 100%
- efficacy (kill) (Amblyomma hebraeum): 100%
- efficacy (kill) (Musca domestica): 100%
- efficacy (Ctenocephalides felis [1]): 100%
- efficacy (laying of fertile eggs) [2]: 100%
- logP^a) [3]: 4.2
- logP^a) [3, 5]: 4.2
- efficacy (kill) (Lucilia cuprina): 100%
- efficacy (Myzus persicae; application rate 100 g/ha): 90%
- efficacy (kill) (Ctenocephalides felis [4]): 100%

Structure (SMILES): CCc1cc(C(F)(C(F)(F)F)C(F)(F)F)cc(C)c1-n1cc(-c2cnc(Cl)c(C(=O)NC3CC3)c2)cn1 [I-T3-109]
- efficacy (laying of fertile eggs) (Boophilus microplus): 100%
- efficacy (Rhipicephalus sanguineus; application rate 5 μg/cm2): 100%
- efficacy (Spodoptera frugiperda; application rate 500 g/ha): 100%
- efficacy (Phaedon cochleariae; application rate 500 g/ha): 100%
- efficacy (Tetranychus urticae; application rate 500 g/ha): 100%
- efficacy (kill) (Amblyomma hebraeum): 100%
- efficacy (kill) (Musca domestica): 100%
- efficacy (Ctenocephalides felis [1]): 100%
- efficacy (laying of fertile eggs) [2]: 100%
- logP^a) ([3]; reversed-phase column (C18)): 4.2
- log P [3, 5]: 4.2
- efficacy (kill) (Lucilia cuprina): 100%
- efficacy (Myzus persicae; application rate 500 g/ha): 90%
- efficacy (kill) (Ctenocephalides felis [4]): 100%

Structure (SMILES): O=C(NC1CC1)c1cc(-c2cnn(-c3c(Cl)cc(C(F)(C(F)(F)F)C(F)(F)F)cc3Cl)c2)cnc1Cl [I-T3-42]
- efficacy (laying of fertile eggs) (Boophilus microplus): 100%
- efficacy (Rhipicephalus sanguineus; application rate 5 μg/cm2): 100%
- efficacy (Spodoptera frugiperda; application rate 500 g/ha): 100%
- efficacy (Phaedon cochleariae; application rate 500 g/ha): 100%
- efficacy (Tetranychus urticae; application rate 500 g/ha): 100%
- efficacy (kill) (Amblyomma hebraeum): 100%
- efficacy (kill) (Musca domestica): 100%
- efficacy (Ctenocephalides felis [1]): 100%
- efficacy (laying of fertile eggs) [2]: 100%
- logP^a) [3]: 3.8
- logP^a) [3, 5]: 3.8
- efficacy (kill) (Lucilia cuprina): 100%
- efficacy (Myzus persicae; application rate 500 g/ha): 90%
- efficacy (kill) (Ctenocephalides felis [4]): 100%
